According to BindingDB's records for doi:10.1016/j.ejmech.2008.01.010 (Universit&#233, 2008):
Counter-ions that a name gives are not always drawn.

Legend:
[1] = biological target: Vascular endothelial growth factor receptor 2 (Homo sapiens, UniProt P35968); assay: Inhibition of KDR
[2] = biological target: Insulin-like growth factor 1 receptor (Homo sapiens, UniProt P08069); assay: Inhibition of IGF1R
[3] = biological target: Hepatocyte growth factor receptor (Homo sapiens, UniProt P08581); assay: Inhibition of cMet
Sequence of Hepatocyte growth factor receptor (P08581 whole entry): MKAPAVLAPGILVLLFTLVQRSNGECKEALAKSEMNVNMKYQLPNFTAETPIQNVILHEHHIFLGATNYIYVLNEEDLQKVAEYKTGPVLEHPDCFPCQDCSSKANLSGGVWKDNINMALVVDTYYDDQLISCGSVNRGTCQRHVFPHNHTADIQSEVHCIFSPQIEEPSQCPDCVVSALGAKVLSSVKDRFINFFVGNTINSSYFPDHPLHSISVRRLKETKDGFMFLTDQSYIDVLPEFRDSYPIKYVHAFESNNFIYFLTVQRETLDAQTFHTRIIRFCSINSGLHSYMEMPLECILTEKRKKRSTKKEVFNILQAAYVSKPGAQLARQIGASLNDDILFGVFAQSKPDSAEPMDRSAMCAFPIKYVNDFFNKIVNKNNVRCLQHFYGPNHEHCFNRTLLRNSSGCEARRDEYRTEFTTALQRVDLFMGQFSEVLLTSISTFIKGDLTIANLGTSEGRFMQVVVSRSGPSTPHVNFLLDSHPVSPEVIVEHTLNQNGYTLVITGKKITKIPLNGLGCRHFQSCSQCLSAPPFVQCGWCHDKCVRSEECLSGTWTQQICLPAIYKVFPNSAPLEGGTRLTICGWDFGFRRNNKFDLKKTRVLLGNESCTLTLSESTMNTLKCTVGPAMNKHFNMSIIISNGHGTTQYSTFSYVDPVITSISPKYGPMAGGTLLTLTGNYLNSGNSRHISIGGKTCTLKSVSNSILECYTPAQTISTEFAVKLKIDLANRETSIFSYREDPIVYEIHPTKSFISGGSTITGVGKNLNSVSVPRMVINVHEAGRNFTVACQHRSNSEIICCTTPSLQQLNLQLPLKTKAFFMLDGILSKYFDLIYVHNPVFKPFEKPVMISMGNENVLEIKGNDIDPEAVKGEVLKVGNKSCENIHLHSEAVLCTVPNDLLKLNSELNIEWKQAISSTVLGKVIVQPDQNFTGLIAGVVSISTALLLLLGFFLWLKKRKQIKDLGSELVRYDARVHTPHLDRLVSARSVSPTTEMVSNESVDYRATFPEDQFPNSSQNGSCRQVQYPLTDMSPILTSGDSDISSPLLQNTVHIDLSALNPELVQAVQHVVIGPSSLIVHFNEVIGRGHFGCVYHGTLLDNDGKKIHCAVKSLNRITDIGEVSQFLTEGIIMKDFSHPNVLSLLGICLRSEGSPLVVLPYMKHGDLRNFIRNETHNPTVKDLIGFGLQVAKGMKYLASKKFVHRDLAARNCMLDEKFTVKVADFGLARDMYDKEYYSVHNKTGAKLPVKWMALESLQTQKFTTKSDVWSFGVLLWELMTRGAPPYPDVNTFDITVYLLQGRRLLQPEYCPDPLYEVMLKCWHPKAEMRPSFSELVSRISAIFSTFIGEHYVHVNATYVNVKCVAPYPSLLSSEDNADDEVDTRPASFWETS

[4] = biological target: Proto-oncogene tyrosine-protein kinase receptor Ret (Homo sapiens, UniProt P07949); assay: Inhibition of Ret
[5] = biological target: Proto-oncogene tyrosine-protein kinase Src (Homo sapiens, UniProt P12931); assay: Inhibition of Src
Sequence of Proto-oncogene tyrosine-protein kinase Src (P12931 2-536 limits assumed): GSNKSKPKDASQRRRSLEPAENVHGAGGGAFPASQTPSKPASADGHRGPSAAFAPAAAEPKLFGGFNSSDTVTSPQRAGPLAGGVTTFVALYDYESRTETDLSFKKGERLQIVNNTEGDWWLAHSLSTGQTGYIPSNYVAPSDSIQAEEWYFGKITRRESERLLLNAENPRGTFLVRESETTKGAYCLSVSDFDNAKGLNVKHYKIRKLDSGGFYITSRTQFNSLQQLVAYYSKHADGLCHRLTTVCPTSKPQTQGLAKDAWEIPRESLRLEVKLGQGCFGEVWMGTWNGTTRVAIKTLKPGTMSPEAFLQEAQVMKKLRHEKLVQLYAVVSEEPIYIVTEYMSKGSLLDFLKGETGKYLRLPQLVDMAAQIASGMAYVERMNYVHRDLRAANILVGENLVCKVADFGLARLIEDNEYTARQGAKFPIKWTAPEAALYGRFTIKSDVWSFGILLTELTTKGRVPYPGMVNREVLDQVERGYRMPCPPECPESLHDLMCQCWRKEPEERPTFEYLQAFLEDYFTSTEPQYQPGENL

[6] = biological target: Tyrosine-protein kinase ABL1 (Homo sapiens, UniProt P00519); assay: Inhibition of c-Abl
Sequence of Tyrosine-protein kinase ABL1 (P00519 whole entry): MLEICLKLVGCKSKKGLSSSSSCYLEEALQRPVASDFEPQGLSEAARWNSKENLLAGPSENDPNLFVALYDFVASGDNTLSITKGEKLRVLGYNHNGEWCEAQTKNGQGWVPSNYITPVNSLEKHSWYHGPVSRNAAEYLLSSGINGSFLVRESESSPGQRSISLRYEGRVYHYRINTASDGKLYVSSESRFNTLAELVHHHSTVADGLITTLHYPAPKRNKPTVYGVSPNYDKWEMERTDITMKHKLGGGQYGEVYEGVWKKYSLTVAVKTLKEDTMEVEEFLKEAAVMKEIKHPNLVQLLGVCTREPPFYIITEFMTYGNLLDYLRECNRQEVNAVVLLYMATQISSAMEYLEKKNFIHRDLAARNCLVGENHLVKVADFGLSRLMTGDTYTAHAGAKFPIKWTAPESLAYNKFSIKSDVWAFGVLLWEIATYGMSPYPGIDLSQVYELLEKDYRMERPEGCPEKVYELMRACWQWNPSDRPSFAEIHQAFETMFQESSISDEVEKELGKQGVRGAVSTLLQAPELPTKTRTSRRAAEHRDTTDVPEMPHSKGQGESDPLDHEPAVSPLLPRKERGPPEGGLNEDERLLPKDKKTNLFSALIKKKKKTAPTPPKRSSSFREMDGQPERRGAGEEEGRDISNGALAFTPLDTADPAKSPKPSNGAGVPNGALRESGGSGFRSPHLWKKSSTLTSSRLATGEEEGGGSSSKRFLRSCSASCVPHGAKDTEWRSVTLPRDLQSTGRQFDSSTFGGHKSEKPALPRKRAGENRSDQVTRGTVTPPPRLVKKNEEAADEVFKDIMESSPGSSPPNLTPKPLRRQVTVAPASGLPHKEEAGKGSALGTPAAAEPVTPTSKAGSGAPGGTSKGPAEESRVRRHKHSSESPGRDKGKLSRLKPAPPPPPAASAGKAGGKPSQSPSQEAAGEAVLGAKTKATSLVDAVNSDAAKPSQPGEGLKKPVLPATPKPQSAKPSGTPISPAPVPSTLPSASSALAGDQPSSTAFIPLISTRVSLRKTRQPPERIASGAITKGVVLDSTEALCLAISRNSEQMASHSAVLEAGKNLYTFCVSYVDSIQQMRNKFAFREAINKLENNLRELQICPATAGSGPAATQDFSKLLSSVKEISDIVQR

Measured: IC50

Sequence of Insulin-like growth factor 1 receptor (P08069 31-736 limits assumed): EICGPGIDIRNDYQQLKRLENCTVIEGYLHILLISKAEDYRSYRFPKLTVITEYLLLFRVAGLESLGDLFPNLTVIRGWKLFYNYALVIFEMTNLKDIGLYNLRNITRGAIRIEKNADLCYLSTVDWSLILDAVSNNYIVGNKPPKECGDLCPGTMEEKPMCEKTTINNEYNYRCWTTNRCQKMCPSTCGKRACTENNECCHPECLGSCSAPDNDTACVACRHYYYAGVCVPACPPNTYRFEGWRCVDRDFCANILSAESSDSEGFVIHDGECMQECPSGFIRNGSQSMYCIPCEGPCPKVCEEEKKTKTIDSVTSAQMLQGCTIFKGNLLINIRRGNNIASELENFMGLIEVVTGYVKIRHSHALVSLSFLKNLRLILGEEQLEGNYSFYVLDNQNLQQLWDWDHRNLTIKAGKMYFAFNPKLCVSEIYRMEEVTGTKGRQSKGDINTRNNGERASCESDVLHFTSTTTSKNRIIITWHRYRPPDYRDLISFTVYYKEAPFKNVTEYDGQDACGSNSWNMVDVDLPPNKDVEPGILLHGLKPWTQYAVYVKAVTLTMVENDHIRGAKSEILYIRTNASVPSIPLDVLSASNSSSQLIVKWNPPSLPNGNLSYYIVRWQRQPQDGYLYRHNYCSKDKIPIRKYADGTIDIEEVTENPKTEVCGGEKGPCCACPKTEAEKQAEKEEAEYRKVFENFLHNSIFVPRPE
Sequence of Insulin-like growth factor 1 receptor (P08069 741-1367 limits assumed): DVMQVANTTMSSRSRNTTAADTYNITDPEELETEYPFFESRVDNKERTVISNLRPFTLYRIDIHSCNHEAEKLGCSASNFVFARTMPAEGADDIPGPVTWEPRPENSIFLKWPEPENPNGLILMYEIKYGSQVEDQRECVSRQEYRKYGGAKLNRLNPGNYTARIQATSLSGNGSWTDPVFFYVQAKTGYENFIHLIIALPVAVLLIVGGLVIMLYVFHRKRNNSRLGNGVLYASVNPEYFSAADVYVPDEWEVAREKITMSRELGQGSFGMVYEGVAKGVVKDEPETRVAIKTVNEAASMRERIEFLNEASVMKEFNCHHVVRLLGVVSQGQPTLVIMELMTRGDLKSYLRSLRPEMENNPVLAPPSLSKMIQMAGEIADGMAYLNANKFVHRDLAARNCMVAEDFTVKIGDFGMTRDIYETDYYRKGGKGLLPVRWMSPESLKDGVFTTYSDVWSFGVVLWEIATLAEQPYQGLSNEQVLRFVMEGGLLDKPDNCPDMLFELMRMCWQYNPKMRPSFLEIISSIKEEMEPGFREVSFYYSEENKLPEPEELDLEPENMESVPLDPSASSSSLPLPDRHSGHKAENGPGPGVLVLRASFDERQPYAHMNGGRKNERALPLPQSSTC

N[C@@H](CCCCN=CC1C(=O)Nc2ccc(Br)cc21)C(=O)O (stereo partly drawn) [(Z/E)-(2S)-2-amino-6-([(5-bromo-2-oxo-indolin-3-ylidene)methyl]amino)hexanoic acid hydrochloride]
> 10 µM: all assays above

N[C@@H](CCCN=CC1C(=O)Nc2ccccc21)C(=O)O (stereo partly drawn) [(Z/E)-(2S)-2-amino-5-([(2-oxo-indolin-3-ylidene)methyl]amino)pentanoic acid hydrochloride]
> 10 µM: all assays above

N[C@@H](CCCCN=CC1C(=O)Nc2ccccc21)C(=O)O (stereo partly drawn) [(Z/E)-(2S)-2-amino-6-([(2-oxo-indolin-3-ylidene)methyl]amino)hexanoic acid hydrochloride]
> 10 µM: all assays above
